How the values were obtained:
HsClpP = HsClpP (Homo sapiens, UniProt Q16740); assay: HsClpP enzyme hydrolysis of short peptide substrate AC-WLA-AMC; settings: promoting hydrolysis of short peptide substrate by HsClpP, relative to blank control
Description: This study evaluated the regulatory activity of the compounds on HsClpP by examining the hydrolysis effects of HsClpP protein on the AC-WLA-AMC substrate . […] The small molecules and the HsClpP protein solution were added to a flat-bottomed black 96-well plate, with three replicate wells for each group. […] DMSO was used as a negative control instead of small molecules. The multiple of readings at different concentrations against the readings of DMSO group was recorded as an index for evaluation of hydrolysis activity. . . . GraphPad Prism was used to plot the obtained multiple values and calculate the EC50 values.

HCT116 = assay: CCK-8 in vitro anti-tumor proliferation assay; format: cell-based; settings: Homo sapiens, HCT-116; Table 5; HCT116; 72 hours; read-out: IC50
Description: Example 3: In vitro anti-tumor proliferation assay of the compounds. The purpose of this experiment was to use CCK-8 to detect the in vitro inhibitory activity of the compounds of the present invention against the proliferation of tumor cells. The main reagents, such as RPMI-1640, DMEM high-glucose culture medium, fetal bovine serum, trypsin, etc., were purchased from Gibco BRL. CCK8 and DMSO were products of Sigma. For in vitro experiment, the test compounds were prepared as 10 mM stock solutions in DMSO and stored at −20° C. in the refrigerator in the dark for later use, then diluted to desired concentration with complete culture medium before use. The human lung cancer cells, colon cancer cells, breast cancer cells, glioblastoma cells, human myelomonocytic leukemia cells, and human Burkitt's lymphoma cells used in this experiment were all purchased from the American ATCC company and preserved in laboratory of the inventors. All the above cell lines were cultured in RPMI-1640 complete medium or DMEM complete medium containing 10% fetal bovine serum, 100 U/mL penicillin, and 100 μg/mL streptomycin under 5% carbon dioxide, 37° C. conditions. […] The previous culture medium was discarded, fresh culture medium was added to resuspend the cells, and then the cells were counted. According to the growth rate of different cells, the cell seeding concentration was determined, generally being 3000-5000 cells/well. After determining the seeding concentration, the cell suspension was diluted to desired concentrations with fresh culture medium, and then added to a 96-well plate with 100 μL per well, and 200 μL of PBS was added to the edge wells to prevent evaporation of the culture medium. On the second day, drug treatment was performed. First, the compounds were diluted into a series of gradients with culture medium, and then the drug solution was added to the 96-well plate, with 3 parallel wells for each gradient. Each plate set a blank control group, and ONC201 was used as the positive control group.

HsClpP, sequence (Q16740 57-277): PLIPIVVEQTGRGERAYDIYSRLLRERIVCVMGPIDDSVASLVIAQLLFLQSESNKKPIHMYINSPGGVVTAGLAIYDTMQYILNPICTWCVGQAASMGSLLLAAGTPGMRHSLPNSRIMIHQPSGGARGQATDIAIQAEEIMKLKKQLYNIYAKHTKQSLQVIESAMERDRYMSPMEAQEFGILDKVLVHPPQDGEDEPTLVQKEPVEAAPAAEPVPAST

SMILES	Regulatory efficacy 1 μM (HsClpP)	Regulatory efficacy 10 μM (HsClpP)	IC50 (HCT116)
O=c1nc2n(c3c1CN(Cc1ccccc1)CC3)CCN2CC1CC1 [Compound 5, 7-benzyl-3-cyclopropylmethyl-2,3,6,7,8,9-hexahydroimidazo[1,2-a]pyrido[3,4-e]pyrimidin-5(1H)-one]	+ (+ indicating that the increased efficacy is less than 50% of the blank control group)	+ +	> 10000 nM
O=c1nc2n(c3c1CN(Cc1ccccc1)CC3)CCN2CC1CCCCC1 [Compound 6, 7-benzyl-3-cyclohexylmethyl-2,3,6,7,8,9-hexahydroimidazo[1,2-a]pyrido[3,4-e]pyrimidin-5(1H)-one]	+ +	+ +	2500 nM
O=c1nc2n(c3c1CN(Cc1ccccc1)CC3)CCN2Cc1ccc(Br)c(F)c1 [Compound 22, 7-benzyl-3-(4-bromo-3-fluorobenzyl)-2,3,6,7,8,9-hexahydroimidazo[1,2-a]pyrido[3,4-e]pyrimidin-5 (1H)-one]	+ +	+ +	80 nM
CN1CCn2c1nc(=O)c1c2CCN(Cc2ccccc2)C1 [Compound 2, 7-benzyl-3-methyl-2,3,6,7,8,9-hexahydroimidazo[1,2-a]pyrido[3,4-e]pyrimidin-5(1H)-one]	+ (+ indicating that the increased efficacy is less than 50% of the blank control group)	+ (+ indicating that the increased efficacy is less than 50% of the blank control group)	> 10000 nM
O=c1nc2n(c3c1CN(Cc1ccccc1)CC3)CCN2Cc1ccccc1 [Compound 7, 7-benzyl-3-benzyl-2,3,6,7,8,9-hexahydroimidazo[1,2-a]pyrido[3,4-e]pyrimidin-5(1H)-one]	+ +	+ +	500 nM
O=c1nc2n(c3c1CN(Cc1ccccc1)CC3)CCN2Cc1ccc2ccccc2c1 [Compound 8, 7-benzyl-3-(2-naphthylmethyl)-2,3,6,7,8,9-hexahydroimidazo[1,2-a]pyrido[3,4-e]pyrimidin-5(1H)-one]	+ +	+ +	300 nM
O=c1nc2n(c3c1CN(Cc1ccccc1)CC3)CCN2Cc1ccc(Cl)c(Cl)c1 [Compound 26, 7-benzyl-3-(3,4-dichlorobenzyl)-2,3,6,7,8,9-hexahydroimidazo[1,2-a]pyrido[3,4-e]pyrimidin-5(1H)-one]	+ +	+ +	30 nM
Cc1cccc(CN2CCc3c(c(=O)nc4n3CCN4Cc3ccccc3C)C2)c1 [Compound 32, 3-(2-methylbenzyl)-7-(3-methylbenzyl)-2,3,6,7,8,9-hexahydroimidazo[1,2-a]pyrido[3,4-e]pyrimidin-5(1H)-one]	+ +	+ +	1500 nM
Cc1ccc(CN2CCn3c2nc(=O)c2c3CCN(Cc3ccccc3)C2)cc1 [Compound 12, 7-benzyl-3-(4-methylbenzyl)-2,3,6,7,8,9-hexahydroimidazo[1,2-a]pyrido[3,4-e]pyrimidin-5(1H)-one]	+ +	+ +	200 nM
Cc1ccccc1CN1CCn2c1nc(=O)c1c2CCN(Cc2cccc(C#N)c2)C1 [Compound 35, 3-((3-(2-methylbenzyl)-5-oxo-2,3,6,7,8,9-hexahydroimidazo[1,2-a]pyrido[3,4-e]pyrimidin-7(6H)-yl)methyl)benzonitrile]	+ +	+ +	500 nM
CCN1CCc2c(c(=O)nc3n2CCN3Cc2ccccc2C)C1 [Compound 28, 7-ethyl-3-(2-methylbenzyl)-2,3,6,7,8,9-hexahydroimidazo[1,2-a]pyrido[3,4-e]pyrimidin-5(1H)-one]	+ (+ indicating that the increased efficacy is less than 50% of the blank control group)	+ (+ indicating that the increased efficacy is less than 50% of the blank control group)	> 10000 nM
O=c1nc2n(c3c1CN(Cc1ccccc1)CC3)CCN2Cc1ccc(Br)cc1 [Compound 17, 7-benzyl-3-(4-bromobenzyl)-2,3,6,7,8,9-hexahydroimidazo[1,2-a]pyrido[3,4-e]pyrimidin-5(1H)-one]	+ +	+ +	500 nM
COc1ccc(CN2CCn3c2nc(=O)c2c3CCN(Cc3ccccc3)C2)cc1 [Compound 14, 7-benzyl-3-(4-methoxybenzyl)-2,3,6,7,8,9-hexahydroimidazo[1,2-a]pyrido[3,4-e]pyrimidin-5(1H)-one]	+ +	+ +	1200 nM
COc1ccccc1CN1CCn2c1nc(=O)c1c2CCN(Cc2ccccc2)C1 [Compound 13, 7-benzyl-3-(2-methoxybenzyl)-2,3,6,7,8,9-hexahydroimidazo[1,2-a]pyrido[3,4-e]pyrimidin-5(1H)-one]	+ +	+ +	1300 nM
Cc1ccccc1CN1CCn2c1nc(=O)c1c2CCN(CCc2ccccc2)C1 [Compound 42, 3-(2-methylbenzyl)-7-phenethyl-2,3,6,7,8,9-hexahydroimidazo[1,2-a]pyrido[3,4-e]pyrimidin-5(1H)-one]	+ (+ indicating that the increased efficacy is less than 50% of the blank control group)	+ +	
O=c1nc2n(c3c1CN(Cc1ccccc1)CC3(F)F)CCN2Cc1ccco1 [Compound 70, 7-Benzyl-9,9-difluoro-3-(furan-2-ylmethyl)-2,3,6,7,8,9-hexahydroimidazo [1,2-a]pyrido[3,4-e]pyrimidin-5(1H)-one]	+ (+ indicating that the increased efficacy is less than 50% of the blank control group)	+ +	
Cc1ccccc1CN1CCn2c1nc(=O)c1c2CCN(C(=O)c2ccccc2)C1 [Compound 39, 7-benzoyl-3-(2-methylbenzyl)-2,3,6,7,8,9-hexahydroimidazo[1,2-a]pyrido[3,4-e]pyrimidin-5(1H)-one]	+ (+ indicating that the increased efficacy is less than 50% of the blank control group)	+ (+ indicating that the increased efficacy is less than 50% of the blank control group)	> 10000 nM
Cc1cccc(CN2CCn3c2nc(=O)c2c3CCN(Cc3ccccc3)C2)c1 [Compound 11, 7-benzyl-3-(3-methylbenzyl)-2,3,6,7,8,9-hexahydroimidazo[1,2-a]pyrido[3,4-e]pyrimidin-5(1H)-one]	+ +	+ +	300 nM
Cc1ccc(CN2CCn3c2nc(=O)c2c3C(F)(F)CN(Cc3ccccc3)C2)cc1 [Compound 72, 7-Benzyl-9,9-difluoro-3-(4-methylbenzyl)-2,3,6,7,8,9-hexahydroimidazo[1,2-a]pyrido[3,4-e]pyrimid in-5(1H)-one]	+ +	+ +	
CC(C)CCN1CCn2c1nc(=O)c1c2CCN(Cc2ccccc2)C1 [Compound 4, 7-benzyl-3-isopentyl-2,3,6,7,8,9-hexahydroimidazo[1,2-a]pyrido[3,4-e]pyrimidin-5(1H)-one]	+ +	+ +	
Cc1ccccc1CN1CCn2c1nc(=O)c1c2CCN(Cc2ccccc2C#N)C1 [Compound 34, 2-((3-(2-methylbenzyl)-5-oxo-2,3,6,7,8,9-hexahydroimidazo[1,2-a]pyrido[3,4-e]pyrimidin-7(6H)-yl)methyl)benzonitrile]	+ +	+ +	
Cc1cccc(CN2CCn3c2nc(=O)c2c3C(F)(F)CN(Cc3cccc(C#N)c3)C2)c1 [Compound 58, 3-((9,9-difluoro-3-(3-methylbenzyl)-5-oxo-2,3,6,7,8,9-hexahydroimidazo[1,2-a]pyrido[3,4-e]pyrimidin-7(6H)-yl)methyl)benzonitrile]	+ +	+ +	
